According to US20170298380A1, “IMIDAZOLINONE HERBICIDE RESISTANT BORAGE” (Bioriginal Food & Science Corp., priority 2016, published 2017):
Entries after “also recorded” stand apart in the source; their conditions may differ. Where two headings read alike, the source gives them in different places.

How the values were obtained:
borage seeds (M1) = type: in vivo, Borago officinalis
Experimental: Approximately 164000 borage seeds were divided into 6 groups for mutagenesis. The seeds (M1) were soaked in 0.5%, 1.0% and 1.5% (v/v) of EMS solutions for 8 hours and 16 hours respectively, and then rinsed with tap water for 4 hours. After washing, the seeds are dried with paper towel. The mutagenized seeds were sowed in 48 plots in a research farm in Saskatoon, SK, in June, 2012. Each plot was 7.5×1.5 m in size and sowed 86 g of mutagenized seeds. M1 borage plants were grown to maturity and M2 seeds were harvested by groups according to the EMS treatments.

[1] = system: M4 homozygous imidazolinone-resistant borage (AHAS1 mutant); type: in vivo, Borago officinalis; settings: AHAS1 mutant line, 2X of the recommended rate, 21 days after spraying
Experimental: Adjuvant reagent for each herbicide was added into spray solution accordingly. Sprayed M4 borage plants were visually evaluated at 21 days after spraying by comparing with wild-type controls.

[2] = system: AHAS enzyme of susceptible borage (wild-type); test: In vitro AHAS activity assay, susceptible (wild-type) borage leaf protein extract; type: biochemical, Borago officinalis; settings: 625 μM imazamox
Description: (§1) The herbicide imazamox is an inhibitor of the AHAS enzyme. […] It has been shown from the above Examples that the AHAS1 mutant borage line can tolerate two times the recommended dosage of “Solo” herbicide and the tolerance is caused by the single nucleotide mutation of the AHAS1 gene. As such, the AHAS activity level of the mutant plants would provide further evidence to support the conclusion. AHAS enzyme activity is generally measured using a discontinuous colorimetric assay based on the method developed by Singh et al. (Singh B K, et al. Assay of acetohydroxyacid synthase. Analytical Biochemistry 171 (1988) 173-179). In this method, the crude protein is incubated with the substrate for a fixed time to generate intermediate acetolactate that is then converted to acetoin under decarboxylation. Finally, the reaction of acetoin with creatine and α-naphthol forms a pink-colored product which can be measured at 520 nm wavelength in a spectrometer. As a result, the AHAS activity level can be estimated based on the color density. See Duggleby R G and Pang S S. (2000) supra. […]
(§2) The gummy protein layer was re-dissolved in 1.4 mL incubation buffer containing 50 mM K2HPO4 buffer (pH 7.0), 100 mM sodium pyruvate, 10 mM MgCl2, 1 mM TPP and 1 μM FAD. The amount of protein in each sample was determined immediately by the Bio-Rad protein assay using a dye reagent (#500-0006). […]

[3] = system: AHAS enzyme of homozygous resistant borage (AHAS1 mutant); test: In vitro AHAS activity assay, resistant (AHAS1 mutant) borage leaf protein extract; type: biochemical, Borago officinalis; settings: across all imazamox concentrations (0-625 μM)
Description: as §1, §2

SMILES: CCOS(C)(=O)=O [EMS, ethyl methanesulfonate]
- Germination Rate (%) (borage seeds (M1); 0.5% EMS 8 hrs): 19%
- Germination Rate (%) (borage seeds (M1); 0.5% EMS 16 hrs): 8%
- Germination Rate (%) (borage seeds (M1); 1.0% EMS 8 hrs): 15%
- Germination Rate (%) (borage seeds (M1); 1.0% EMS 16 hrs): 9%
- Germination Rate (%) (borage seeds (M1); 1.5% EMS 8 hrs): 11%
- Germination Rate (%) (borage seeds (M1); 1.5% EMS 16 hrs): 8%
- germination rate (borage seeds (M1); all EMS-treated M1 seeds sown in the field): about 12%
- sterility of M1 (borage seeds (M1); in vivo): pronounced sterility

SMILES: COc1nn(C(=O)[N-]S(=O)(=O)c2ccccc2OC(F)(F)F)c(=O)n1C.[Na+] [flucarbazone sodium]
- level of resistance / tolerance (in words) [1]: some tolerance

SMILES: COCc1cnc(C2=NC(C)(C(C)C)C(=O)N2)c(C(=O)O)c1 (stereo not shown) [imazamox, 2-[4,5-dihydro-4-methyl-4-(1-methylethyl)-5-oxo-1H-imidazol-2-yl]-5-(methoxymethl)-3-pyridinecarboxylic acid.]
- level of resistance / tolerance (in words) [1]: strong resistance; also recorded: equally strong resistant level
- AHAS activity retained [2]: zero and completely inhibited
- AHAS activity of mutant compared with wild type [3]: significantly higher AHAS activity than the wild type borage

SMILES: CCc1cnc(C2=NC(C)(C(C)C)C(=O)N2)c(C(=O)O)c1 (stereo not shown) [imazethapyr, 2-[4.5-dihydro-4-methyl-4-(1-methylethyl)-5-oxo-1H-imidazol-2-yl]-5-ethyl-3-pyridinecarboxylic acid]
- level of resistance / tolerance (in words) [1]: strong resistance; also recorded: equally strong resistant level
